{"source": "patent US20250332178A1", "about": "“METHODS OF TREATING MYCOBACTERIAL INFECTIONS USING TETRACYCLINE COMPOUNDS” (priority 2018, published 2025)", "key": {"M. intracellulare": {"system": "M. intracellulare", "test": "MIC (CLSI broth dilution), slow-growing NTM isolates", "type": "cell-based", "details": "Mycobacterium intracellulare, read-out: MIC"}, "M. smegmatis group": {"system": "M. smegmatis group", "test": "MIC (CLSI broth dilution), RGM isolates", "type": "cell-based", "details": "Mycolicibacterium smegmatis, read-out: MIC"}, "M. simiae": {"system": "M. simiae", "test": "MIC (CLSI broth dilution), slow-growing NTM isolates", "type": "cell-based", "details": "read-out: MIC"}, "M. abscessus complex": {"system": "M. abscessus complex", "test": "MIC (CLSI broth dilution), RGM isolates", "type": "cell-based", "details": "Mycobacteroides abscessus, read-out: MIC"}, "M. avium": {"system": "M. avium", "test": "MIC (CLSI broth dilution), slow-growing NTM isolates", "type": "cell-based", "details": "Mycobacterium avium, read-out: MIC"}, "M. immunogenum group": {"system": "M. immunogenum group", "test": "MIC (CLSI broth dilution), RGM isolates", "type": "cell-based", "details": "M. immunogenum, read-out: MIC"}, "M. chimaera": {"system": "M. chimaera", "test": "MIC (CLSI broth dilution), slow-growing NTM isolates", "type": "cell-based", "details": "read-out: MIC"}, "[1]": {"system": "Bacille Calmette Guerin (BCG)", "type": "cell-based, Mycobacterium bovis", "details": "disk: 30 μg of linezolid"}, "M. fortuitum group": {"system": "M. fortuitum group", "test": "MIC (CLSI broth dilution), RGM isolates", "type": "cell-based", "details": "Mycolicibacterium fortuitum, read-out: MIC"}, "[2]": {"system": "slow-growing NTM isolates", "test": "MIC (CLSI broth dilution), all slow-growing NTM isolates", "type": "cell-based, nontuberculous mycobacteria", "details": "all slow-growing NTM isolates"}, "M. chelonae": {"system": "M. chelonae", "test": "MIC (CLSI broth dilution), RGM isolates", "type": "cell-based", "details": "Mycobacteroides chelonae, read-out: MIC"}, "M. mucogenium group": {"system": "M. mucogenium group", "test": "MIC (CLSI broth dilution), RGM isolates", "type": "cell-based", "details": "read-out: MIC"}, "M. arupense": {"system": "M. arupense", "test": "MIC (CLSI broth dilution), slow-growing NTM isolates", "type": "cell-based", "details": "isolate 11, Other; read-out: MIC"}, "[3]": {"system": "rapid-growing mycobacteria (RGM) isolates", "test": "MIC (CLSI broth dilution), all RGM isolates", "type": "cell-based, nontuberculous mycobacteria", "details": "all 50 RGM isolates"}}, "note": "Read-outs that look alike come from different tables or passages of the source."}
{"smiles": "CC(=O)NC[C@H]1CN(c2ccc(N3CCOCC3)c(F)c2)C(=O)O1", "note": "[linezolid]", "values": [{"measurement": "MIC", "setting": "M. intracellulare; isolate 6, MAC", "value": 32, "unit": "µg/mL"}, {"measurement": "MIC", "setting": "M. intracellulare; isolate 7, MAC", "value": 16, "unit": "µg/mL"}, {"measurement": "MIC", "setting": "M. intracellulare; isolate 8, MAC", "value": 32, "unit": "µg/mL"}, {"measurement": "MIC", "setting": "M. intracellulare; isolate 9, MAC", "value": 32, "unit": "µg/mL"}, {"measurement": "MIC", "setting": "M. intracellulare; isolate 10, MAC", "value": "> 32", "unit": "µg/mL"}, {"measurement": "MIC", "setting": "M. smegmatis group; isolate 49, M. smegmatis group, M. goodii", "value": "≤ 2", "unit": "µg/mL"}, {"measurement": "MIC", "setting": "M. smegmatis group; isolate 50, M. smegmatis group, M. wolinskyi", "value": 4, "unit": "µg/mL"}, {"measurement": "MIC", "setting": "M. simiae; isolate 13, Other", "value": "> 32", "unit": "µg/mL"}, {"measurement": "MIC", "setting": "M. simiae; isolate 14, Other", "value": 32, "unit": "µg/mL"}, {"measurement": "MIC", "setting": "M. simiae; isolate 15, Other", "value": "> 32", "unit": "µg/mL"}, {"measurement": "MIC", "setting": "M. abscessus complex; isolate 1, M. abscessus complex, erm gene type MAB30", "value": 16, "unit": "µg/mL"}, {"measurement": "MIC", "setting": "M. abscessus complex; isolate 2, M. abscessus complex, erm gene type MAB30", "value": 16, "unit": "µg/mL"}, {"measurement": "MIC", "setting": "M. abscessus complex; isolate 3, M. abscessus complex, erm gene type MAB30", "value": 32, "unit": "µg/mL"}, {"measurement": "MIC", "setting": "M. abscessus complex; isolate 4, M. abscessus complex, erm gene type massiliense", "value": 16, "unit": "µg/mL"}, {"measurement": "MIC", "setting": "M. abscessus complex; isolate 5, M. abscessus complex, erm gene type massiliense/subsp. abs hybrid", "value": 4, "unit": "µg/mL"}, {"measurement": "MIC", "setting": "M. abscessus complex; isolate 6, M. abscessus complex, erm gene type Type 1 abscessus", "value": 32, "unit": "µg/mL"}, {"measurement": "MIC", "setting": "M. abscessus complex; isolate 7, M. abscessus complex, erm gene type Type 1 abscessus", "value": 16, "unit": "µg/mL"}, {"measurement": "MIC", "setting": "M. abscessus complex; isolate 8, M. abscessus complex, erm gene type Type 1 abscessus", "value": 16, "unit": "µg/mL"}, {"measurement": "MIC", "setting": "M. abscessus complex; isolate 9, M. abscessus complex, erm gene type Type 1 abscessus", "value": 32, "unit": "µg/mL"}, {"measurement": "MIC", "setting": "M. abscessus complex; isolate 10, M. abscessus complex, erm gene type Type 1 abscessus", "value": 16, "unit": "µg/mL"}, {"measurement": "MIC", "setting": "M. abscessus complex; isolate 11, M. abscessus complex, erm gene type Type 6 abscessus", "value": 8, "unit": "µg/mL"}, {"measurement": "MIC", "setting": "M. abscessus complex; isolate 12, M. abscessus complex, erm gene type Type 6 abscessus", "value": 8, "unit": "µg/mL"}, {"measurement": "MIC", "setting": "M. abscessus complex; isolate 13, M. abscessus complex, erm gene type Type 6 abscessus", "value": 16, "unit": "µg/mL"}, {"measurement": "MIC", "setting": "M. abscessus complex; isolate 14, M. abscessus complex, erm gene type Type 6 abscessus", "value": "≤ 2", "unit": "µg/mL"}, {"measurement": "MIC", "setting": "M. abscessus complex; isolate 15, M. abscessus complex, erm gene type Type 7 abscessus", "value": 16, "unit": "µg/mL"}, {"measurement": "MIC", "setting": "M. abscessus complex; isolate 16, M. abscessus complex, erm gene type Type 7 abscessus", "value": "≤ 2", "unit": "µg/mL"}, {"measurement": "MIC", "setting": "M. abscessus complex; isolate 17, M. abscessus complex, erm gene type Type 8 abscessus", "value": 16, "unit": "µg/mL"}, {"measurement": "MIC", "setting": "M. avium; isolate 1, MAC", "value": 32, "unit": "µg/mL"}, {"measurement": "MIC", "setting": "M. avium; isolate 2, MAC", "value": 32, "unit": "µg/mL"}, {"measurement": "MIC", "setting": "M. avium; isolate 3, MAC", "value": "> 32", "unit": "µg/mL"}, {"measurement": "MIC", "setting": "M. immunogenum group; isolate 35, M. immunogenum group", "value": 32, "unit": "µg/mL"}, {"measurement": "MIC", "setting": "M. immunogenum group; isolate 36, M. immunogenum group", "value": 8, "unit": "µg/mL"}, {"measurement": "MIC", "setting": "M. immunogenum group; isolate 37, M. immunogenum group", "value": 32, "unit": "µg/mL"}, {"measurement": "MIC", "setting": "M. immunogenum group; isolate 38, M. immunogenum group", "value": 32, "unit": "µg/mL"}, {"measurement": "MIC", "setting": "M. chimaera; isolate 4, MAC", "value": 16, "unit": "µg/mL"}, {"measurement": "MIC", "setting": "M. chimaera; isolate 5, MAC", "value": 32, "unit": "µg/mL"}, {"measurement": "Results/Observations (growth)", "setting": "[1]", "value": "No growth on plate"}, {"measurement": "MIC", "setting": "M. fortuitum group; isolate 23, M. fortuitum group, M. fortuitum", "value": "≤ 2", "unit": "µg/mL"}, {"measurement": "MIC", "setting": "M. fortuitum group; isolate 24, M. fortuitum group, M. fortuitum", "value": 4, "unit": "µg/mL"}, {"measurement": "MIC", "setting": "M. fortuitum group; isolate 25, M. fortuitum group, M. fortuitum", "value": 4, "unit": "µg/mL"}, {"measurement": "MIC", "setting": "M. fortuitum group; isolate 26, M. fortuitum group, M. porcinum", "value": "≤ 2", "unit": "µg/mL"}, {"measurement": "MIC", "setting": "M. fortuitum group; isolate 27, M. fortuitum group, M. porcinum", "value": 4, "unit": "µg/mL"}, {"measurement": "MIC", "setting": "M. fortuitum group; isolate 28, M. fortuitum group, M. porcinum/M. boenickei", "value": "≤ 2", "unit": "µg/mL"}, {"measurement": "MIC", "setting": "M. fortuitum group; isolate 29, M. fortuitum group, M. porcinum/M. boenickei", "value": 4, "unit": "µg/mL"}, {"measurement": "MIC", "setting": "M. fortuitum group; isolate 30, M. fortuitum group, M. porcinum/M. boenickei", "value": "≤ 2", "unit": "µg/mL"}, {"measurement": "MIC", "setting": "M. fortuitum group; isolate 31, M. fortuitum group, M. senegalense", "value": "≤ 2", "unit": "µg/mL"}, {"measurement": "MIC", "setting": "M. fortuitum group; isolate 32, M. fortuitum group, M. senegalense", "value": "≤ 2", "unit": "µg/mL"}, {"measurement": "MIC", "setting": "M. fortuitum group; isolate 33, M. fortuitum group, M. senegalense", "value": "≤ 2", "unit": "µg/mL"}, {"measurement": "MIC", "setting": "M. fortuitum group; isolate 34, M. fortuitum group, M. senegalense", "value": "≤ 2", "unit": "µg/mL"}, {"measurement": "MIC50", "setting": "[2]; read-out: MIC50", "value": 32, "unit": "µg/mL"}, {"measurement": "MIC90", "setting": "[2]; read-out: MIC90", "value": "> 32", "unit": "µg/mL"}, {"measurement": "MIC", "setting": "M. chelonae; isolate 18, M. chelonae", "value": 16, "unit": "µg/mL"}, {"measurement": "MIC", "setting": "M. chelonae; isolate 19, M. chelonae", "value": 8, "unit": "µg/mL"}, {"measurement": "MIC", "setting": "M. chelonae; isolate 20, M. chelonae", "value": 4, "unit": "µg/mL"}, {"measurement": "MIC", "setting": "M. chelonae; isolate 21, M. chelonae", "value": 16, "unit": "µg/mL"}, {"measurement": "MIC", "setting": "M. chelonae; isolate 22, M. chelonae", "value": 16, "unit": "µg/mL"}, {"measurement": "MIC", "setting": "M. mucogenium group; isolate 39, M. mucogenicum group, M. mucogenicum", "value": "≤ 2", "unit": "µg/mL"}, {"measurement": "MIC", "setting": "M. mucogenium group; isolate 40, M. mucogenicum group, M. mucogenicum", "value": "≤ 2", "unit": "µg/mL"}, {"measurement": "MIC", "setting": "M. mucogenium group; isolate 41, M. mucogenicum group, M. mucogenicum", "value": "≤ 2", "unit": "µg/mL"}, {"measurement": "MIC", "setting": "M. mucogenium group; isolate 42, M. mucogenicum group, M. mucogenicum", "value": "≤ 2", "unit": "µg/mL"}, {"measurement": "MIC", "setting": "M. mucogenium group; isolate 43, M. mucogenicum group, M. phocaicum", "value": "≤ 2", "unit": "µg/mL"}, {"measurement": "MIC", "setting": "M. mucogenium group; isolate 44, M. mucogenicum group, M. phocaicum", "value": "≤ 2", "unit": "µg/mL"}, {"measurement": "MIC", "setting": "M. mucogenium group; isolate 45, M. mucogenicum group, M. phocaicum", "value": "≤ 2", "unit": "µg/mL"}, {"measurement": "MIC", "setting": "M. mucogenium group; isolate 46, M. mucogenicum group, M. phocaicum", "value": "≤ 2", "unit": "µg/mL"}, {"measurement": "MIC", "setting": "M. mucogenium group; isolate 47, M. mucogenicum group, M. phocaicum", "value": 4, "unit": "µg/mL"}, {"measurement": "MIC", "setting": "M. mucogenium group; isolate 48, M. mucogenicum group, M. phocaicum", "value": "≤ 2", "unit": "µg/mL"}, {"measurement": "MIC", "setting": "M. arupense", "value": 32, "unit": "µg/mL"}, {"measurement": "MIC50", "setting": "[3]; read-out: MIC50", "value": 4, "unit": "µg/mL"}, {"measurement": "MIC90", "setting": "[3]; read-out: MIC90", "value": 32, "unit": "µg/mL"}]}
